Laboratory results taken from patent publication US12435128B2, “Method for predicting therapeutic effect of LSD1 inhibitor based on expression of INSM1” (TAIHO PHARMACEUTICAL CO., LTD., priority 2017, dated 2025).
Counter-ions that a name gives are not always drawn. Like-named read-outs stand apart in the source and are kept apart here. Each block holds one compound with its values, some of them ahead of it.

Experiments:
Assay type in all cases: cell-based
[1] = system: NCI-H1417 cells (human small-cell lung cancer cell lines); experiment: Cell-growth inhibition test: NCI-H1417 cells
Description: (§1) Under the following conditions, an in vitro cell-growth inhibition test was performed with respect to HEL cells (human acute myelocytic leukemia cell lines), NCI-H1417 cells (human small-cell lung cancer cell lines), and NCI-H146 cells (human small-cell lung cancer cell lines).
(§2) The cells with the Example compound or with dimethylsulfoxide alone were cultured at 37° C. in a 5% carbon-dioxide-containing incubator for 5 days (HEL cells) or 10 days (NCI-H1417 cells and NCI-H146 cells). After culture, the plate was allowed to stand at room temperature for 30 minutes, and 100 μL of the supernatant was removed from each well to leave 100 μL of the cell culture solution. To each well containing the remaining 100 μL of the cell culture solution, the same amount of CellTiter-Glo 2.0 Assay (Promega, Cat #: G9242) was added. The microplate was shaken with a plate mixer for 1 minute and then allowed to stand in a dark place for 10 minutes. Thereafter, the luminescence intensity of viable cells in each well was measured using a microplate reader (PerkinElmer, EnSpire). […] Cell growth rate(%)=T/C×100 • T: The luminescence intensity in a well to which the test compound was added (count per second) • C: The luminescence intensity in a well to which dimethylsulfoxide alone was added (count per second)

[2] = system: HEL cells (human acute myelocytic leukemia cell lines); experiment: Cell-growth inhibition test: HEL cells; conditions: read-out: IC50 (nM), Cell-Growth Inhibition Test: HEL Cells
Description: as §1, §2

[3] = system: NCI-H146 cells (human small-cell lung cancer cell lines); experiment: Cell-growth inhibition test: NCI-H146 cells
Description: as §1, §2

[4] = Homo sapiens, NCI-H1417, read-out: IC50 (nM), Cell-Growth Inhibition Test: NCI-H1417 Cells
[5] = NCI-H1417 cells, read-out: IC50 (nM), Cell-Growth Inhibition Test: NCI-H1417 Cells
[6] = NCI-H146 cells, read-out: IC50 (nM), Cell-Growth Inhibition Test: NCI-H146 Cells
[7] = read-out: IC50 (nM), Cell-Growth Inhibition Test: NCI-H1417 Cells
[8] = Homo sapiens, NCI-H146, read-out: IC50 (nM), Cell-Growth Inhibition Test: NCI-H146 Cells

SMILES: Cn1nnc2cc(-c3ccc(C(=O)N4CC[C@H](NC5CCC5)C4)cc3-c3ccc(C#N)c(F)c3)c(F)cc21 [Example 116, 4-[5-[(3S)-3-(cyclobutylamino)pyrrolidine-1-carbonyl]-2-(6-fluoro-1-methyl-benzotriazol-5-yl)phenyl]-2-fluoro-benzonitrile]
- IC50 [1, 4]: 29.5 nM

- IC50 ([2]; HEL cells): 22.2 nM
- IC50 [1, 5]: 8.25 nM
SMILES: Cn1cnc2cc(-c3ccc(C(=O)N4C5CCC4CC(N)C5)cc3-c3ccc(C#N)c(F)c3)c(F)cc21 (stereo not drawn) [Example 130, 4-[5-[(3-endo)-3-amino-8-azabicyclo[3.2.1]octane-8-carbonyl]-2-(6-fluoro-1-methyl-benzimidazol-5-yl)phenyl]-2-fluoro-benzonitrile]

SMILES: CC(C)(O)Cc1ccc(-c2ccc(CN3[C@@H]4CC[C@H]3[C@@H](N)C4)cc2-c2ccc(C#N)c(F)c2)c(F)c1 (single isomer, unassigned) [Example 290, dihydrochloride]
- IC50 [3, 6]: 2.12 nM
- IC50 [1, 7]: 1.06 nM

SMILES: CCC(O)(CC)Cn1ncc2cc(-c3ccc(C(=O)N4CC[C@H](N)C4)cc3-c3ccc(C#N)c(F)c3)c(F)cc21 [Example 204, (S)-5′-(3-aminopyrrolidine-1-carbonyl)-2′-(1-(2-ethyl-2-hydroxybutyl)-6-fluoro-1H-indazol-5-yl)-3-fluoro-[1,1′-biphenyl]-4-carbonitrile]
- IC50 [1, 4]: 1.98 nM

- IC50 ([2]; HEL cells): 17.7 nM
- IC50 [1, 5]: 17.9 nM
SMILES: Cn1c(=O)sc2cc(-c3ccc(C(=O)N4C5CCC4CC(N)C5)cc3-c3ccc(C#N)c(F)c3)ccc21 (stereo not drawn) [Example 133, 4-[5-[(3-endo)-3-amino-8-azabicyclo[3.2.1]octane-8-carbonyl]-2-(3-methyl-2-oxo-1,3-benzothiazol-6-yl)phenyl]-2-fluoro-benzonitrile]

- IC50 [1, 5]: 18.2 nM
SMILES: N#Cc1ccc(-c2cc(C(=O)N3C4CCC3CC(N)C4)ccc2-c2ccc3cccnc3c2)cc1F (stereo not drawn) [Example 107, 4-[5-[(3-exo)-3-amino-8-azabicyclo[3.2.1]octane-8-carbonyl]-2-(7-quinonyl)phenyl]-2-fluoro-benzonitrile]

SMILES: CC(C)(O)Cn1ncc2cc(-c3ccc(C(=O)N4[C@@H]5CC[C@H]4[C@@H](N)C5)cc3-c3ccc(C#N)c(F)c3)c(F)c(F)c21 (relative stereo) [Example 195, 5′-((1S,2S,4R)-rel-2-amino-7-azabicyclo[2.2.1]heptane-7-carbonyl)-2′-(6,7-difluoro-1-(2-hydroxy-2-methylpropyl)-1H-indazol-5-yl)-3-fluoro-[1,1′-biphenyl]-4-carbonitrile]
- IC50 [3, 8]: 1.28 nM

SMILES: Cn1c(=O)oc2cc(-c3ccc(C(=O)N4CC[C@H](N)C4)cc3-c3ccc(C#N)c(F)c3)ccc21 [Example 119, 4-[5-[(3S)-3-aminopyrrolidine-1-carbonyl]-2-(3-methyl-2-oxo-1,3-benzooxazol-6-yl)phenyl]-2-fluoro-benzonitrile]
- IC50 [1, 4]: 23.9 nM

SMILES: CC(C)(O)Cn1cc(C(=O)O)c2cc(-c3ccc(C(=O)N4[C@@H]5CC[C@H]4[C@@H](N)C5)cc3-c3ccc(C#N)c(F)c3)c(F)cc21 (single isomer, unassigned) [Example 222]
- IC50 [2]: 38 nM
- IC50 [1, 7]: 41.8 nM

SMILES: CC(C)(O)Cn1ncc2cc(-c3ccc(C(=O)N4C5CCC4CC(N)C5)cc3-c3ccc(C#N)c(F)c3)c(F)cc21 (stereo not drawn) [Example 142, 5′-((3-endo)-3-amino-8-azabicyclo[3.2.1]octane-8-carbonyl)-3-fluoro-2′-(6-fluoro-1-(2-hydroxy-2-methylpropyl)-1H-indazol-5-yl)-[1,1′-biphenyl]-4-carbonitrile]
- IC50 [2]: 3.88 nM
- IC50 [1, 7]: 3.79 nM

SMILES: CC(C)(O)Cn1nnc2cc(-c3ccc(C(=O)N4[C@@H]5CC[C@H]4[C@@H](N)C5)cc3-c3ccc(C#N)c(F)c3)c(F)c(Br)c21 (single isomer, unassigned) [Example 273]
- IC50 [3, 6]: 0.63 nM
- IC50 [2]: 0.27 nM

SMILES: N#Cc1ccc(-c2cc(C(=O)N3CC[C@H](N)C3)ccc2-c2cc3nnn(CC4(O)CCC4)c3c(C(F)F)c2F)cc1F [Example 261, (S)-5′-(3-aminopyrrolidine-1-carbonyl)-2′-(7-(difluoromethyl)-6-fluoro-1-((1-hydroxycyclobutyl)methyl)-1H-benzo[d][1,2,3]triazol-5-yl)-3-fluoro-[1,1′-biphenyl]-4-carbonitrile]
- IC50 [3, 8]: 32.3 nM

SMILES: Cn1cc(C(N)=O)c2cc(-c3ccc(C(=O)N4[C@@H]5CC[C@H]4[C@@H](N)C5)cc3-c3ccc(C#N)c(F)c3)c(F)cc21 (single isomer, unassigned) [Example 236]
- IC50 [3, 6]: 28.5 nM
- IC50 [1, 7]: 11 nM

SMILES: N#Cc1ccc(-c2cc(C(=O)N3[C@@H]4CC[C@H]3[C@@H](N)C4)ccc2-c2cc3nnn(CC4(O)CCC4)c3c(Cl)c2F)cc1F (single isomer, unassigned) [Example 257]
- IC50 [3, 6]: 0.39 nM
- IC50 [2]: 0.13 nM

- IC50 [1, 5]: 20.5 nM
SMILES: COCCc1ccc(-c2ccc(C(=O)N3C4CCC3CC(NC(C)C)C4)cc2-c2ccc(C#N)c(F)c2)c(F)c1 (stereo not drawn) [Example 112, 2-fluoro-4-[2-[2-fluoro-4-(2-methoxyethyl)phenyl]-5-[(3-exo)-3-(isopropylamino)-8-azabicyclo[3.2.1]octane-8-carbonyl]phenyl]benzonitrile]

- IC50 ([2]; HEL cells): 14.8 nM
- IC50 [1, 5]: 26 nM
SMILES: Cc1ccc(-c2ccc(C(=O)N3C4CCC3CC(N)C4)cc2-c2ccc(C#N)cc2)cc1 (stereo not drawn) [Example 7, 4-[5-[(3-exo)-3-amino-8-azabicyclo[3.2.1]octane-8-carbonyl]-2-(p-tolyl)phenyl]benzonitrile]

SMILES: CC(C)(O)Cn1nnc2cc(-c3ccc(C(=O)N4[C@@H]5CC[C@H]4[C@@H](N)C5)cc3-c3ccc(C#N)c(F)c3)c(F)c(Cl)c21 (single isomer, unassigned) [Example 209]
- IC50 [3, 6]: 0.22 nM
- IC50 [2]: 0.24 nM

- IC50 ([2]; HEL cells): 36.4 nM
- IC50 [1, 5]: 3.99 nM
SMILES: Cn1cnc2cc(-c3ccc(C(=O)N4C5CCC4CC(N)C5)cc3-c3ccc(C#N)c(F)c3)c(F)cc21 (stereo not drawn) [Example 108, 4-[5-[(3-exo)-3-amino-8-azabicyclo[3.2.1]octane-8-carbonyl]-2-(6-fluoro-1-methyl-benzimidazol-5-yl)phenyl]-2-fluoro-benzonitrile]

SMILES: CC(C)(O)Cn1nnc2cc(-c3ccc(C(=O)N4[C@H]5CC[C@@H]4[C@H](N)C5)cc3-c3ccc(C#N)c(F)c3)c(F)c(C3CC3)c21 (single isomer, unassigned) [Example 279]
- IC50 [2]: 1.59 nM
- IC50 [1, 7]: 0.9 nM

SMILES: CC(C)(O)Cn1ccc2cc(-c3ccc(C(=O)C4CC5(CNC5)CN4)cc3-c3ccc(C#N)c(F)c3)c(F)c(F)c21 (centres unmarked) [Example 200, 2′-(6,7-difluoro-1-(2-hydroxy-2-methylpropyl)-1H-indol-5-yl)-3-fluoro-5′-(2,7-diazaspiro[3.4]octane-6-carbonyl)-[1,1′-biphenyl]-4-carbonitrile]
- IC50 [1, 4]: 0.18 nM

- IC50 [1, 5]: 4.4 nM
SMILES: CC(C)(O)Cc1ccc(-c2ccc(C(=O)N3C4CCC3CC(N)C4)cc2-c2ccc(C#N)c(F)c2)c(F)c1 (stereo not drawn) [Example 28, 4-[5-[(3-exo)-3-amino-8-azabicyclo[3.2.1]octane-8-carbonyl]-2-[2-fluoro-4-(2-hydroxy-2-methyl-propyl)phenyl]phenyl]-2-fluoro-benzonitrile]

- IC50 ([2]; HEL cells): 7.57 nM
- IC50 [1, 5]: 8.43 nM
SMILES: Cn1nnc2cc(-c3ccc(C(=O)N4C5CCC4CC(N)C5)cc3-c3ccc(C#N)c(F)c3)c(F)cc21 (stereo not drawn) [Example 125, 4-[5-[(3-endo)-3-amino-8-azabicyclo[3.2.1]octane-8-carbonyl]-2-(6-fluoro-1-methyl-benzotriazol-5-yl)phenyl]-2-fluoro-benzonitrile]

SMILES: COCCc1ccc(-c2ccc(C(=O)N3CCCC(N)CC3)cc2-c2ccc(C#N)c(F)c2)c(F)c1 (centres unmarked) [Example 165, 5′-(4-aminoazepan-1-carbonyl)-2″,3-difluoro-4″-(2-methoxyethyl)-[1,1′:2′,1″-terphenyl]-4-carbonitrile]
- IC50 ([2]; Homo sapiens, HEL): 0.62 nM
- IC50 [1, 4]: 1.42 nM

SMILES: CC(C)(O)Cn1ccc2cc(-c3ccc(C(=O)N4C5CCC4CC(N)C5)cc3-c3ccc(C#N)c(F)c3)c(F)cc21 (stereo not drawn) [Example 136, 5′-((3-endo)-3-amino-8-azabicyclo[3.2.1]octane-8-carbonyl)-3-fluoro-2′-(6-fluoro-1-(2-hydroxy-2-methylpropyl)-1H-indol-5-yl)-[1,1′-biphenyl]-4-carbonitrile]
- IC50 [1, 7]: 2.39 nM

SMILES: Cn1ccc2cc(-c3ccc(C(=O)N4CC[C@H](N)C4)cc3-c3ccc(C#N)c(F)c3)c(F)cc21 [Example 134, (S)-5′-(3-aminopyrrolidine-1-carbonyl)-3-fluoro-2′-(6-fluoro-1-methyl-1H-indol-5-yl)-[1,1′-biphenyl]-4-carbonitrile]
- IC50 [1, 4]: 0.93 nM

SMILES: CC(C)(O)Cn1nnc2cc(-c3ccc(C(=O)N4[C@@H]5CC[C@H]4[C@@H](N)C5)cc3-c3ccc(C#N)c(F)c3)c(F)c(C(F)F)c21 (single isomer, unassigned) [Example 246]
- IC50 [2]: 0.37 nM
- IC50 [1, 7]: 0.81 nM
